# Laboratory results: PMC4993737, “Antibacterial activity identification of pCM19 and pCM12 derived from hGlyrichin” (SpringerPlus, 2016)
# Legend:
# E. coli BL21 = test: Bacteria colony counting method; assay type: cell-based, Escherichia coli; details: 100 µg peptide, 37 °C 2 h, plated, colonies counted after 12–18 h, n = 5, numbers only in Fig. 1a
# Method: (§1) The antimicrobial activity assays were completed in a specialized laboratory. Red blood cells were collected from healthy adults at the 307 hospital laboratory. All participants gave informed consent to participate in the study.
# (§2) Twenty microliters of the culture was diluted in LB (final volume 1 ml) and was evenly coated on an LB plate, inverted and incubated at 37 °C for 12–18 h and then the bacterial colonies were counted.
# E. coli BL21 Amp^R = test: Bacteria colony counting method; assay type: cell-based, Escherichia coli; details: 100 µg peptide, 37 °C 2 h, plated, colonies counted after 12–18 h, n = 5, numbers only in Fig. 1b
# Method: as §1, §2
# S. Typhi (ATCC 19430) = test: Bacteria colony counting method; assay type: cell-based, Salmonella Typhi; details: 100 µg peptide, 37 °C 2 h, plated, colonies counted after 12–18 h, n = 5, numbers only in Fig. 1e
# Method: as §1, §2
# S. aureus (ATCC 25923) = test: Bacteria colony counting method; assay type: cell-based, Staphylococcus aureus; details: 100 µg peptide, 37 °C 2 h, plated, colonies counted after 12–18 h, n = 5, numbers only in Fig. 1c
# Method: as §1, §2
# [1] = system: S. aureus Amp^R (ATCC BAA-44); test: Bacteria colony counting method; assay type: cell-based, Staphylococcus aureus; details: 100 µg peptide, 37 °C 2 h, plated, colonies counted after 12–18 h, n = 5, numbers only in Fig. 1d
# Method: as §1, §2
# human red blood cells = test: In vitro hemolysis assay; assay type: cell-based; details: 1 h 37 °C, even at a much higher concentration than the effective antibacterial dose (up to 3000 µg/ml)
# Method: as §1
# Blood samples from healthy donors were treated with heparin to minimize clotting. The blood cell was washed three times with normal saline, and 8 µl samples were diluted to 100 µl in normal saline. The diluted blood cell (100 µl) was incubated with 100 µl of pCM19 (3000 µg/ml) for 1 h at 37 °C; then the same volume diluted blood cell was incubated with 100 µl of pCM12 (100, 200, 500, 1000, 2000, 3000 µg/ml) for 1 h at 37 °C. Centrifugation was carried out at 1000 rpm for 5 min at 4 °C. Each treatment was performed in triplicate. The absorbance of each sample was measured at 570 nm using a microplate reader.
Substance,antibacterial activity by colony counting (E. coli BL21),antibacterial activity by colony counting (E. coli BL21 Amp^R),antibacterial activity by colony counting (S. Typhi (ATCC 19430)),antibacterial activity by colony counting (S. aureus (ATCC 25923)),antibacterial activity by colony counting [1],"damage to red cell membranes (hemolysis), in words (human red blood cells)"
"CLRIGMRGREL [pCM11, pCM12 with the last amino acid residue removed]",lost its antibacterial activity,lost its antibacterial activity,lost its antibacterial activity,lost its antibacterial activity,lost its antibacterial activity,
"CLRIGMRGRELM [pCM12, 12 amino acids of pCM19 from which 7 amino acids at the carboxyl terminal were removed]",effectively inhibited the growth,good inhibition and killing,effectively inhibited the growth,effectively inhibited the growth,good inhibition and killing,caused no damage to the red cell membranes
"CLRIGMRGRELMGGIGKTM [pCM19, 19 amino acids from positions 42 to 60 of hGlyrichin]",effectively inhibited the growth,good inhibition and killing,effectively inhibited the growth,effectively inhibited the growth,good inhibition and killing,caused no damage to the red cell membranes
"GGIGKTM [flexible peptide, a GIG array, the portion that is different between pCM19 and pCM12]",almost completely lost the antibacterial activity,almost completely lost the antibacterial activity,almost completely lost the antibacterial activity,almost completely lost the antibacterial activity,almost completely lost the antibacterial activity,
"GICRLMMRRGLE [RC, a random array of pCM12]",almost completely lost its bactericidal activity,almost completely lost its bactericidal activity,almost completely lost its bactericidal activity,almost completely lost its bactericidal activity,almost completely lost its bactericidal activity,
